Test results as given in ChEMBL document CHEMBL5321253, “Discovery of novel pyridinones as MGAT2 inhibitors for the treatment of metabolic disorders” (Bioorg Med Chem Lett, 2023).

Experiments:
[1] = in vitro; settings: human, liver microsomes
[2] = in vitro; settings: mouse, liver microsomes

**Q.** With Cc1ccc(-c2cc(-c3ccc(OCCCC(F)(F)F)cc3)[nH]c(=O)c2NC(=O)c2ccno2)cc1 as the compound, how does the remaining at 10 min [1] read?
**A.** The remaining at 10 min was 64%.

**Q.** And the remaining at 10 min [2]?
**A.** The remaining at 10 min was 27%.
